Values joined by “and” are separate entries in the source; they are usually repeats but may differ in a detail not shown here. Equal values may be shown once. Bounds are passed on as bounds.

One data set can be described thus: Lipophilicity. It counts as physicochemical.
A short description of a further data set: Water solubility. It counts as physicochemical.
A further data set has as its system platelet aggregation. Nature of the data set: In vitro inhibition of ADP-induced platelet aggregation in platelet-rich plasma. It counts as cell-based, human. The protocol:
Ten mL of whole blood was collected from healthy human donors via venipuncture and treated with an anticoagulant (D-phenylalanyl-prolyl-arginyl chloromethyl ketone). From this, platelet-rich plasma (PRP) was prepared by centrifuging whole blood at room temperature at 650 × g for 4 min. PRP was removed and standardised to a uniform platelet concentration of 3.0 × 10^5/μL, using platelet poor plasma as a diluent, where necessary. […] Platelet aggregation was measured using an aggregometer (PAP-8E C/N 106075; Bio/Data Corp, Horsham PA). For M1 a range of concentrations was tested to produce a single fitted curve, and the Levenberg-Marquardt approach was used to calculate IC50 values.

The nature of data set [1]: Metabolite profiling of pooled whole blood, urine and faeces by LC radiochromatograms with AMS. It counts as in vivo, human. The procedure: For metabolite profiling in whole blood, urine, and faeces, LC-MS/MS followed by AMS was used. The HPLC system included a 1290 Infinity Sampler, Binary Pump, and thermostat (Agilent, UK). The chromatographic method used an aqueous formic acid (MPA)/ammonium acetate:acetonitrile:methanol (MPB) gradient and a Scherzo SS-C18 HPLC column at a temperature of 40 °C with injection volumes of 50–200 microliters. The gradient was set at 90% MAP and 10% MPB. The mass spectrometer was a Q-Exactive system (Thermo Fisher Scientific, UK) and the AMS a single stage NEC SSAMS-250.
Single whole blood, faeces, and urine pools were created across subjects and radioactive regions representing 10% or more of the circulating radioactivity were analysed (e.g. 10% or more of the circulating radioactivity in whole blood or accounting for 10% or more of the administered radioactivity/dose in urine and faeces), To create the pool, an individual subject AUC pool was prepared, and a constant proportion of each subject pool was taken to create one cross-subject pool. The whole blood sample pool included samples from hours 0–144, the urine sample pool included samples from hours 0–48, and the faeces pool from hours 0–192.
Whole blood, faeces, and urine radiochromatograms were generated for each sample by collecting HPLC fractions at intervals of 2 (30 s) or 4 (15 s) per minute over the run time of 110 min.
Radiochromatograms were generated from AMS data using the LAURA V6 software (LabLogic, Sheffield, UK). Regions of interest were quantified and provisionally identified where possible by assignment of observed peaks in each radiochromatogram to either parent zalunfiban or M1 by retention time matching, with corresponding ^12C-reference standards obtained via LC-UV.
Assignment of parent and metabolites was made by matching retention times with synthesised standards at wavelengths of 210, 230, 254, 270, and 300 nm, using liquid chromatography ultraviolet chromatography (LC-UV).
For extraction of ^14C-zalunfiban from whole blood, weighed aliquots in microcentrifuge tubes were processed with vortex mixing and centrifugation. The supernatant was then harvested and the process repeated with the bullet material in the original tube using acetonitrile and then methanol. The combined aliquots then underwent AMS analysis to determine the extraction recovery. Once optimised, the final combined supernatant was dried under N2 gas at 40 °C and reconstituted with 1 mL methanol:water (20:80, v/v), with vortex mixing and sonication. This was followed by analysis by LC. The radioactivity extraction recovery for whole blood (AUC0–144h) was 54.5%,
For extraction of ^14C-zalunfiban from homogenised faeces, weighed aliquots in microcentrifuge tubes were processed with vortex mixing and centrifugation, and then diluted with acetonitrile, followed by additional mixing, centrifugation, and repeat extraction with methanol:water until optimised. Once optimised, the final combined supernatant was dried under N2 gas at 40 °C and reconstituted with methanol, followed by water, followed by vortex mixing, followed by analysis by LC. The radioactivity extraction recovery for faeces (0–192 h) was 100%.
Urine was not subjected to extraction. An aliquot was dispensed into an LC vial prior to analysis.

As for `Nc1cncc(-c2nn3c(=O)cc(N4CCNCC4)nc3s2)c1` [M1, des-gly-zalunfiban], in “Lipophilicity”, the “Lipophilicity compared with zalunfiban” value is “more lipophilic than zalunfiban”. For the same molecule, in “Water solubility”, the solubility was < 0.01 µg/mL. Also, half-maximal inhibition in the data set on platelet aggregation (Homo sapiens, Platelet, 20 min, PRP, 20 min at 22°C, ADP-initiated aggregation) (IC50) required 25.5 ± 3.5 µM. Further, the “Antiplatelet activity relative to zalunfiban” value in the data set on platelet aggregation (from IC50 values) is recorded as < 1%. Besides, in data set [1] (0–48 h), the “Percentage of dose excreted in urine” value is 52.98% and 53.0%. Besides, in data set [1] (0–48 h cross-participant pooled sample), the “Percentage of total radioactivity in urine” value came to 64.1%. Also, the “Percentage of dose excreted in faeces” value in data set [1] (0–192 h) is reported as 2.87%. The “Percentage of total radioactivity in faeces” value in data set [1] (0–192 h pooled sample) amounted to 20.8%. Besides, the “Percentage of total circulating radioactivity in whole blood” value in data set [1] (AUC0–144 cross-pooled whole blood extract) was 24.4%. Moreover, in data set [1] (male, human, in vivo), the “Radiochromatogram peak, faeces extract” value was 20.83 %ROI.

As a reminder, the solubility is the concentration that dissolves in the medium under given conditions. What is called IC50 is the concentration needed to halve the response being measured.

(Values after PMC13108699, “Mass balance and metabolite profiling of ^14C-Zalunfiban in humans following single-dose subcutaneous administration” (Xenobiotica; the fate of foreign compounds in biological …, 2025).)
